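Assay format: 96-well plates, 48-hour exposure. TGI: total growth inhibition.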
What was measured:
Test in all cases: growth of human tumour cells (NCI), 48 h
DLD-1 colon = system: DLD-1 colon
KM20L2 colon = system: KM20L2 colon
HOP-18 NSCLC = system: HOP-18 NSCLC
DMS 114 small cell lung = system: DMS 114 small cell lung
XF 498 CNS = system: XF 498 CNS
LXFL 529 NSCLC = system: LXFL 529 NSCLC
DMS 273 small cell lung = system: DMS 273 small cell lung
SNB-78 CNS = system: SNB-78 CNS
RXF-631 renal = system: RXF-631 renal

## Clc1ccc2c(c1)C1C(CO2)C(c2ccccc2)=NN1c1ccccc1 (centres undefined)
DLD-1 colon
  TGI: > 100 µM
KM20L2 colon
  TGI: > 100 µM
HOP-18 NSCLC
  TGI: 50.8 µM
DMS 114 small cell lung
  TGI: 77.5 µM
XF 498 CNS
  TGI: 59 µM
LXFL 529 NSCLC
  TGI: > 100 µM
DMS 273 small cell lung
  TGI: 88.7 µM
SNB-78 CNS
  TGI: > 100 µM

## COc1ccc(C(=O)Cc2c(C(=O)c3ccccc3)c3ccccc3n2C(=O)c2ccccc2)cc1
DLD-1 colon
  TGI: > 100 µM
KM20L2 colon
  TGI: > 100 µM
DMS 114 small cell lung
  TGI: > 100 µM
XF 498 CNS
  TGI: > 100 µM
LXFL 529 NSCLC
  TGI: > 100 µM
DMS 273 small cell lung
  TGI: > 100 µM

## CC(=O)OC[C@]1(O)CC[C@@]23CC1C[C@@H]2CCC1C(C)(C)CCC[C@@]13C (some centres undefined)
DLD-1 colon
  TGI: 28.8 µM
KM20L2 colon
  TGI: 31.7 µM
DMS 114 small cell lung
  TGI: 25.3 µM
XF 498 CNS
  TGI: 27.2 µM
LXFL 529 NSCLC
  TGI: 23.2 µM
DMS 273 small cell lung
  TGI: 12.7 µM
RXF-631 renal
  TGI: 27.3 µM
SNB-78 CNS
  TGI: 32.7 µM

## COC(=O)N1CCc2c(nc(N(C)CCO)[nH]c2=O)C1
DLD-1 colon
  TGI: > 100 µM
KM20L2 colon
  TGI: > 100 µM
HOP-18 NSCLC
  TGI: > 100 µM
DMS 114 small cell lung
  TGI: > 100 µM
XF 498 CNS
  TGI: > 100 µM
LXFL 529 NSCLC
  TGI: > 100 µM
DMS 273 small cell lung
  TGI: > 100 µM
SNB-78 CNS
  TGI: > 100 µM

## CC(=O)OC1COC(Nc2ccc(C(C)=O)cc2)C(OC(C)=O)C1OC(C)=O (centres undefined)
DLD-1 colon
  TGI: > 100 µM
KM20L2 colon
  TGI: > 100 µM
HOP-18 NSCLC
  TGI: > 100 µM
DMS 114 small cell lung
  TGI: > 100 µM
LXFL 529 NSCLC
  TGI: > 100 µM
DMS 273 small cell lung
  TGI: > 100 µM
RXF-631 renal
  TGI: > 100 µM
SNB-78 CNS
  TGI: > 100 µM

## CCN=C(NNc1ccc([N+](=O)[O-])cc1)P(=O)(OC(C)C)OC(C)C
DLD-1 colon
  TGI: > 100 µM
KM20L2 colon
  TGI: > 100 µM
DMS 114 small cell lung
  TGI: > 100 µM
XF 498 CNS
  TGI: > 100 µM
LXFL 529 NSCLC
  TGI: > 100 µM
DMS 273 small cell lung
  TGI: > 100 µM
SNB-78 CNS
  TGI: > 100 µM

## Nc1ccc2nc(Nc3ccc(F)cc3)cnc2c1
DLD-1 colon
  TGI: > 100 µM
DMS 114 small cell lung
  TGI: > 100 µM
XF 498 CNS
  TGI: > 100 µM
DMS 273 small cell lung
  TGI: > 100 µM
